pEC50: −log10 of the molar value.
How the values were obtained:
Type in all cases: cell-based
[1] = target: T1, adenosine A2a receptor (Homo sapiens, UniProt P29274); assay: Indirect determination of adenosine agonism by way of gene expression (luciferase, CHO cells), A2a; details: CHO cells stably transfected with A2a receptor cDNA; 50% of maximum luciferase stimulation
T1 construct: expressed in transfected cells; host or cells: CHO (Chinese Hamster Ovary)
Excerpt: (§1) B-1. Indirect Determination of the Adenosine Agonism by Way of Gene Expression
(§2) Cells of the CHO (Chinese Hamster Ovary) permanent cell line are transfected stably with the cDNA for the adenosine receptor subtypes A1, A2a and A2b. The adenosine A1 receptors are coupled to the adenylate cyclase by way of Gi proteins, while the adenosine A2a and A2b receptors are coupled by way of Gs proteins. In correspondence with this, the formation of cAMP in the cell is inhibited or stimulated, respectively. After that, expression of the luciferase is modulated by way of a cAMP-dependent promoter. The luciferase test is optimized, with the aim of high sensitivity and reproducibility, low variance and good suitability for implementation on a robot system, by varying several test parameters, such as cell density, duration of the growth phase and the test incubation, forskolin concentration and medium composition. The following test protocol is used for pharmacologically characterizing cells and for the robot-assisted substance screening:
(§3) The stock cultures are grown, at 37° C. and under 5% CO2, in DMEM/F12 medium containing 10% FCS (foetal calf serum) and in each case split 1:10 after 2-3 days. The test cultures are seeded in 384-well plates with 2000 cells per well and grown at 37° C. for approx. 48 hours. The medium is then replaced with a physiological sodium chloride solution (130 mM sodium chloride, 5 mM potassium chloride, 2 mM calcium chloride, 20 mM HEPES, 1 mM magnesium chloride hexahydrate, 5 mM sodium bicarbonate, pH 7.4). The substances to be tested, which are dissolved in DMSO, are pipetted into the test cultures (maximum final concentration of DMSO in the test mixture: 0.5%) in a dilution series of from 5×10^−11M to 3×10^−6M (final concentration). 10 minutes later, forskolin is added to the A1 cells and all the cultures are subsequently incubated at 37° C. for four hours. After that, 35 μl of a solution which is composed of 50% lysis reagent (30 mM disodium hydrogenphosphate, 10% glycerol, 3% TritonX100, 25 mM TrisHCl, 2 mM dithiotreitol (DTT), pH 7.8) and 50% luciferase substrate solution (2.5 mM ATP, 0.5 mM luciferin, 0.1 mM coenzyme A, 10 mM tricine, 1.35 mM magnesium sulphate, 15 mM DTT, pH 7.8) are added to the test cultures, which are shaken for approx. 1 minute and the luciferase activity is measured using a camera system. The EC50 values are determined, i.e., the concentrations at which 50% of the luciferase answer is inhibited in the case of the A1 cell, and, respectively, 50% of the maximum stimulation with the corresponding substance is achieved in the case of the A2b and A2a cells. […] Pharmacol., 357 (1998), 1-9).
(§4) Table 18 below lists the EC50 values of representative working examples for the receptor stimulation on adenosine A1, A2a and A2b receptor subtypes: […]

[2] = target: T2, adenosine A1 receptor (Homo sapiens, UniProt P30542); assay: Indirect determination of adenosine agonism by way of gene expression (luciferase, CHO cells), A1; details: CHO cells stably transfected with A1 receptor cDNA; 1 μM forskolin; 50% inhibition of luciferase answer
T2 construct: expressed in transfected cells; host or cells: CHO (Chinese Hamster Ovary)
T2 sequence (P30542 1-326): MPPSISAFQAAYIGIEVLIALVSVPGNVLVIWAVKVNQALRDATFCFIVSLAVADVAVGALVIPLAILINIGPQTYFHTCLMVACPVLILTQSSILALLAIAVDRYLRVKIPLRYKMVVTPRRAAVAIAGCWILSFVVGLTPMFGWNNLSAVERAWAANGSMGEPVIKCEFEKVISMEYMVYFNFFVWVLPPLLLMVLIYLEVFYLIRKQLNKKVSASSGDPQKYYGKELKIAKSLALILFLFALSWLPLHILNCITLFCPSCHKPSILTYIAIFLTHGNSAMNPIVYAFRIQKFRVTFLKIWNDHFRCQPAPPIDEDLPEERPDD
Excerpt: as §1, §2, §3, §4

[3] = target: T3, adenosine A2b receptor (Homo sapiens, UniProt P29275); assay: Indirect determination of adenosine agonism by way of gene expression (luciferase, CHO cells), A2b; details: CHO cells stably transfected with A2b receptor cDNA; 50% of maximum luciferase stimulation
T3 construct: expressed in transfected cells; host or cells: CHO (Chinese Hamster Ovary)
T3 sequence (P29275 1-332): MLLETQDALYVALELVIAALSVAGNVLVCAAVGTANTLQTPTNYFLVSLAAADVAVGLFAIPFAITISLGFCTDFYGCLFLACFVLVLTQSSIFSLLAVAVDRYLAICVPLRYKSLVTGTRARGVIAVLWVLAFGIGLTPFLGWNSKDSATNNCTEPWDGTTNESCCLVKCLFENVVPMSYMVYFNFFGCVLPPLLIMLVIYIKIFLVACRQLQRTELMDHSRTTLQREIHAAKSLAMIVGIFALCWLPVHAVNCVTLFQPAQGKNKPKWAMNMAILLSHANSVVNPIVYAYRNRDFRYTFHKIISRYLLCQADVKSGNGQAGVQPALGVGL
Excerpt: as §1, §2, §3, §4

T1 sequence (P29274 whole entry): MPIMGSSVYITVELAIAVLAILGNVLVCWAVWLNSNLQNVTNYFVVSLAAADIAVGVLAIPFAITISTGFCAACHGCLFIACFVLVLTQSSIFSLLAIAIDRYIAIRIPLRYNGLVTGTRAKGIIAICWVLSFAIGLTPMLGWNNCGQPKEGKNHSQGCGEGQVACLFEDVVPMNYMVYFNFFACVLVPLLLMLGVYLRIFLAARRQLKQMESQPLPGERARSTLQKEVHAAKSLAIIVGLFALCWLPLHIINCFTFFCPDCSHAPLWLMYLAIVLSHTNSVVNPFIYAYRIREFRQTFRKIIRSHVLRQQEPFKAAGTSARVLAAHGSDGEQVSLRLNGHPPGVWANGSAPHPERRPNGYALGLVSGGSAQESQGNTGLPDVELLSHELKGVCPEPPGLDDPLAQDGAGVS

| SMILES | pEC50 [1] | EC50 [2] [nM] | pEC50 [3] |
| --- | --- | --- | --- |
| N#Cc1c(N)nc(SCc2coc(-c3ccc(F)c(Cl)c3)n2)c(C#N)c1-c1ccc(OCCO)cc1 [Example 10] | 5.95 | 0.5 | 6.04 |
| Cc1cc(-c2nc(CSc3nc(N)c(C#N)c(-c4ccc(OCCO)cc4)c3C#N)co2)ccc1F [Example 31] | 6.33 | 0.9 | 6.50 |
| N#Cc1c(N)nc(SCc2coc(-c3ccc(Cl)cc3)n2)c(C#N)c1-c1ccc(OC[C@H](O)CO)cc1 [Example 49, 2-Amino-6-({[2-(4-chlorophenyl)-1,3-oxazol-4-yl]methyl}sulfanyl)-4-(4-{[(2R)-2,3-dihydroxypropyl]oxy}phenyl)pyridine-3,5-dicarbonitrile] | 6.52 | 0.4 | 7.00 |
| Cc1oc(-c2ccc(F)cc2)nc1CSc1nc(N)c(C#N)c(-c2ccc(OC[C@@H](O)CO)cc2)c1C#N [Example 50] |  | 0.4 | 6.93 |
| Cc1oc(-c2ccccc2F)nc1CSc1nc(N)c(C#N)c(-c2ccc(OC[C@@H](O)CO)cc2)c1C#N [Example 61] | 6.36 | 0.7 | 6.66 |
| COc1ccc(-c2nc(CSc3nc(N)c(C#N)c(-c4ccc(OC[C@H](O)CO)cc4)c3C#N)c(C)o2)cc1 [Example 66] | 6.24 | 0.9 | 6.43 |
| Cc1cc(-c2nc(CSc3nc(N)c(C#N)c(-c4ccc(OC[C@H](O)CO)cc4)c3C#N)co2)ccc1Cl [Example 80] | 6.34 | 0.8 | 7.05 |
| N#Cc1c(N)nc(SCc2ncoc2-c2ccc(Cl)cc2)c(C#N)c1-c1ccc(OC[C@@H](O)CO)cc1 [Example 93] | 6.28 | 8.9 | 6.47 |
| Cc1oc(-c2ccc(C(=O)O)cc2)nc1CSc1nc(N)c(C#N)c(-c2ccc(OCC(C)(C)O)cc2)c1C#N [Example 95, 4-{4-[({6-Amino-3,5-dicyano-4-[4-(2-hydroxy-2-methylpropoxy)phenyl]pyridin-2-yl}thio)methyl]-5-methyl-1,3-oxazol-2-yl}benzoic acid] |  | 0.5 |  |
| N#Cc1c(N)nc(SCc2coc(-c3ccc(F)cc3)n2)c(C#N)c1-c1ccc(OC[C@H](O)CO)cc1 [Example 101] | 7.14 | 0.4 | 6.65 |
| N#Cc1c(N)nc(OCc2coc(-c3ccc(Cl)cc3)n2)c(C#N)c1-c1ccc(OCCO)cc1 [Example 110, 2-Amino-6-{[2-(4-chlorophenyl)-1,3-oxazol-4-yl]methoxy}-4-[4-(2-hydroxyethoxy)phenyl]pyridine-3,5-dicarbonitrile] | 6.30 | 0.3 | 7.02 |
| N#Cc1c(SCc2coc(-c3ccc(Cl)cc3)n2)nc(N2CCCC2)c(C#N)c1-c1ccc(OCCO)cc1 [Example 116, 2-({[2-(4-Chlorophenyl)-1,3-oxazol-4-yl]methyl}sulfanyl)-4-[4-(2-hydroxyethoxy)phenyl]-6-(pyrrolidin-1-yl)pyridine-3,5-dicarbonitrile] |  | 0.4 | 6.16 |
| N#Cc1c(NC[C@@H](O)CO)nc(SCc2coc(-c3ccc(Cl)cc3)n2)c(C#N)c1-c1ccc(OCCO)cc1 [Example 119] | 5.71 | 0.3 |  |
| N#Cc1c(NCCO)nc(SCc2coc(-c3ccc(Cl)cc3)n2)c(C#N)c1-c1ccc(OCCO)c(F)c1 [Example 122, 2-({[2-(4-Chlorophenyl)-1,3-oxazol-4-yl]methyl}sulfanyl)-4-[3-fluoro-4-(2-hydroxyethoxy)phenyl]-6-[(2-hydroxyethyl)amino]pyridine-3,5-dicarbonitrile] |  | 4.1 | 5.65 |
| N#Cc1c(SCc2coc(-c3ccc(Cl)cc3)n2)nc(N2CCC2)c(C#N)c1-c1ccc(OCCO)cc1 [Example 126] | 6.16 | 0.5 | 7.11 |
| N#Cc1c(SCc2coc(-c3ccc(Cl)cc3)n2)nc(N2CC[C@@H](O)C2)c(C#N)c1-c1ccc(OCCO)cc1 [Example 127] | 6.01 | 0.4 | 6.55 |
| N#Cc1c(NCCO)nc(OCc2coc(-c3ccc(Cl)cc3)n2)c(C#N)c1-c1ccc(OCCO)cc1 [Example 129] |  | 0.4 |  |
| N#Cc1c(OCc2coc(-c3ccc(Cl)cc3)n2)nc(N2CC(O)C2)c(C#N)c1-c1ccc(OCCO)cc1 [Example 130] |  | 0.6 | 6.61 |

Continued by falling EC50 [2], values first:

| pEC50 [1] | EC50 [2] [nM] | pEC50 [3] | SMILES |
| --- | --- | --- | --- |
| 6.15 | 0.3 | 6.07 | N#Cc1c(N)nc(SCc2coc(-c3ccc(F)c(F)c3)n2)c(C#N)c1-c1ccc(OCCO)cc1 [Example 11] |
| 6.86 | 0.3 | 8.36 | N#Cc1c(N)nc(SCc2coc(-c3ccc(Cl)cc3)n2)c(C#N)c1-c1ccc(OC[C@@H](O)CO)cc1 [Example 48, 2-Amino-6-({[2-(4-chlorophenyl)-1,3-oxazol-4-yl]methyl}sulfanyl)-4-(4-{[(2S)-2,3-dihydroxypropyl]oxy}phenyl)pyridine-3,5-dicarbonitrile] |
|  | 0.3 | 6.63 | Cc1oc(-c2ccc(Cl)cc2)nc1CSc1nc(N)c(C#N)c(-c2ccc(OC[C@@H](O)CO)cc2)c1C#N [Example 60] |
| 7.19 | 0.3 | 7.70 | N#Cc1c(N)nc(SCc2coc(-c3ccc(F)cc3)n2)c(C#N)c1-c1ccc(OC[C@@H](O)CO)cc1 [Example 81] |
| 6.50 | 0.3 | 7.32 | C[C@H](O)COc1ccc(-c2c(C#N)c(N)nc(SCc3coc(-c4ccc(Cl)cc4)n3)c2C#N)cc1 [Example 106] |
| 6.28 | 0.2 | 7.36 | COC(=O)c1ccc(-c2nc(CSc3nc(N)c(C#N)c(-c4ccc(OC[C@@H](O)CO)cc4)c3C#N)c(C)o2)cc1 [Example 57] |
| 5.71 | 0.2 | 6.01 | N#Cc1c(N)nc(OCc2coc(-c3ccc(F)c(F)c3)n2)c(C#N)c1-c1ccc(OCCO)cc1 [Example 114] |
| 5.84 | 0.2 | 5.96 | N#Cc1c(NCCO)nc(SCc2coc(-c3ccc(Cl)cc3)n2)c(C#N)c1-c1ccc(OCCO)cc1 [Example 117] |
| 5.98 | 0.1 | 6.63 | N#Cc1c(SCc2coc(-c3ccc(Cl)cc3)n2)nc(N2CC(O)C2)c(C#N)c1-c1ccc(OCCO)cc1 [Example 128] |

Source: patent US8440700B2, “Substituted aryloxazoles and their use” (Bayer Intellectual Property GmbH, priority 2007, dated 2013)
